# Assay results published in US8324130B2, “Synergistic active ingredient combinations” (Bayer Cropscience AG, priority 2006, dated 2012).
# Legend:
# Assay type in all cases: in vivo
# Phaedon cochleariae = Phaedon cochleariae test (cabbage leaves dipped, populated with larvae); conditions: 200 ppm, larvae on cabbage leaves
# Procedure: (§1) Solvent: 7 parts by weight of dimethylformamide
# (§2) Emulsifier: 2 parts by weight of alkylaryl polyglycol ether
# (§3) To produce a suitable preparation of active compound, 1 part by weight of active compound is mixed with the stated amounts of solvent and emulsifier, and the concentrate is diluted with emulsifier-containing water to the desired concentration.
# After the desired period of time, the kill in % is determined. 100% means that all beetle larvae have been killed; 0% means that none of the beetle larvae have been killed. The kill rates determined are entered into Colby's formula (see page 1).
# Aphis gossypii = Aphis gossypii test (cotton leaves dipped into active compound preparation)
# Procedure: as §1, §2, §3
# Cotton leaves (Gossypium hirsutum) which are heavily infested by the cotton aphid (Aphis gossypii) are treated by being dipped into the preparation of active compound of the desired concentration.
# (§4) After the desired period of time, the kill in % is determined. 100% means that all aphids have been killed; 0% means that none of the aphids have been killed. The kill rates determined are entered into Colby's formula (see page 1).
# Myzus persicae = Myzus persicae test (cabbage leaves dipped into active compound preparation)
# Procedure: as §1, §2, §3
# Cabbage leaves (Brassica oleracea) which are heavily infested by the Green peach aphid (Myzus persicae) are treated by being dipped into the preparation of active compound of the desired concentration.
# as §4
smiles,measurement,setting,value
"CCCOC(=O)NCCCN(C)C [propamocarb, reference compound]",Kill in % after 3^d,Phaedon cochleariae,5%
"COCC(=O)N(c1c(C)cccc1C)C(C)C(=O)OC (centres unmarked) [metalaxyl, reference compound]",Kill in % after 1^d,Aphis gossypii; 100 ppm,10%
same,Kill in % after 1^d,Myzus persicae; 100 ppm,0%
"CN(Cc1ccc(Cl)nc1)C1=CC(=O)OC1 [compound (Ia), 4-[[(6-chloropyridin-3-yl)methyl](methylamino)]furan-2-(5H)-one]",Kill in % after 6^d,Aphis gossypii; 0.16 ppm,40%
same,Kill in % after 6^d,Aphis gossypii; 0.8 ppm,70%
same,Kill in % after 1^d,Myzus persicae; 0.16 ppm,0%
same,Kill in % after 1^d,Myzus persicae; 0.8 ppm,40%
same,Kill in % after 6^d,Myzus persicae; 0.8 ppm,75%
"CO/N=C(/C(=O)OC)c1ccccc1CO/N=C(\C)c1cccc(C(F)(F)F)c1 [trifloxystrobin, reference compound]",Kill in % after 6^d,Aphis gossypii; 100 ppm,40%
"OC(Cc1ccccc1Cl)(Cn1nc[nH]c1=S)C1(Cl)CC1 (centres unmarked) [prothioconazole, reference compound]",Kill in % after 1^d,Myzus persicae; 100 ppm,0%
same,Kill in % after 6^d,Myzus persicae; 100 ppm,0%
"N#Cc1c[nH]cc1-c1cccc2c1OC(F)(F)O2 [fludioxonil, reference compound]",Kill in % after 6^d,Aphis gossypii; 100 ppm,0%
same,Kill in % after 1^d,Myzus persicae; 100 ppm,0%
"O=C1C=C(N(Cc2ccc(Cl)nc2)C2CC2)CO1 [compound (Ib), 4-[[(6-chloropyridin-3-yl)methyl] (cyclopropylamino)]furan-2-(5H)-one]",Kill in % after 1^d,Aphis gossypii; 0.8 ppm,30%
same,Kill in % after 6^d,Aphis gossypii; 0.8 ppm,40%
same,Kill in % after 3^d,Phaedon cochleariae,60%
same,Kill in % after 1^d,Myzus persicae; 4 ppm,75%
